These results are taken from patent US20250188110A1, “SPECIFIC SMALL MOLECULE INHIBITORS THAT BLOCK KMT9 METHYLTRANSFERASE ACTIVITY AND FUNCTION” (ALBERT-LUDWIGS-UNIVERSITÄT FREIBURG, priority 2021, published 2025).

Test [1] deals with T1, KMT9 (Homo sapiens, UniProt Q9Y5N5).
T1 sequence (Q9Y5N5 1-214): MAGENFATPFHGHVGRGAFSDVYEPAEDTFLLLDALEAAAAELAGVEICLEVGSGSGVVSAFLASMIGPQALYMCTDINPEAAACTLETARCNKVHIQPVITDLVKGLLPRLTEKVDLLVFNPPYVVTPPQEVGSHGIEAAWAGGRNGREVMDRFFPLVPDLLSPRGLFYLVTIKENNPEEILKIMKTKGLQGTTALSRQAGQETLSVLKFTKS
T1 sequence (Q9UI30 1-120 isoform Q9UI30-2 partner): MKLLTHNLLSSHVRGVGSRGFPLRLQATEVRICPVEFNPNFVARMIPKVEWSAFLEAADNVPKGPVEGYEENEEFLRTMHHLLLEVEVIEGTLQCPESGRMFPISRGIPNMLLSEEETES
Description: Microscale thermophoresis (MST) KMT9 binding. A digest of the protocol: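 His-tagged KMT9 (20 nM), RED-Tris-NTA labelled, titrated with varying compound concentrations in 25 mM HEPES pH 7.5, 100 mM NaCl, 1 mM DTT, 0.05% Tween. MST at 40% MST and 100% LED power, Nano-RED excitation; Kd binned A ≤10 nM, B 10–100, C 100–1000, D >1000 nM.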

Test [2] has as its target T1, KMT9. Description: KMT9 thermal shift assay (SyproOrange). In kind it is binding. In short, it runs like this: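 Recombinant KMT9 was incubated with compound and SyproOrange at 25° C in 50 mM BTP pH 8.5, 1 mM MgCl2, 1 mM DTT. It was then heated from 20° C to 95° C at 1° C per 15 s with fluorescence read each step. Tm came from a Boltzmann sigmoidal fit; ΔTm relative to DMSO control, binned in 5 K ranges.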

Test [3] addresses T1, KMT9. Description: KMT9 methyltransferase inhibition assay, MTaseGlo luminescence (from entry 155). In kind it is biochemical. As to conditions: 100 nM KMT9, 5 μM ETF1, 1 μM SAM. In short, it runs like this:
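KMT9 (100 nM final) pre-incubated with inhibitor for 15 min at room temperature, then reacted with 5 μM ETF1 and 1 μM SAM for 2 h at 30° C. at 2% DMSO final. MTaseGlo luminescence read after 60 min detection; IC50 reported in four potency bins.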

Setting [4] is: His-tag labelled KMT9 20 nM, Kd class, read-out: MST.
Where [5] appears, read: ΔTm class, 500 uM compound, 2 μM KMT9, read-out: Thermal shift.
[6] abbreviates: IC50 class, MTaseGlo procedure (entries from 155 on), read-out: Inhibition.
Where [7] appears, read: microscale thermophoresis, His-tag labelled KMT9 (20 nM), read-out: MST.
[8] abbreviates: ΔTm, 500 µM compound, 2 μM KMT9, 5X SO, read-out: Thermal shift.
The mark [9] stands for this setting: from entry 155: MTaseGlo assay, read-out: Inhibition.
Setting [10] is: His-tag labelled KMT9 20 nM, read-out: MST (Kd).
[11] abbreviates: 500 µM compound, 2 μM KMT9, read-out: Thermal shift (ΔTm).
Where [12] appears, read: MTaseGlo procedure (entries from 155), read-out: Inhibition (IC50).

SMILES strings stand for the structures. Where two headings read alike, the source gives them in different places.

With `CN1CCC([C@H]2C[C@@H](n3cc(-c4ccn(S(=O)(=O)c5ccccc5)n4)c4cnc(Cl)nc43)[C@H](O)[C@@H]2O)CC1` [Compound 495, (1R,2S,3R,5R)-3-(2-Chloro-5-(1-(phenylsulfonyl)-1H-pyrazol-3-yl)-7H-pyrrolo[2,3-d]pyrimidin-7-yl)-5-(1-methylpiperidin-4-yl)cyclopentane-1,2-diol], the Kd at KMT9 [1] (setting [4]) fell in the range of 10 to 100 nM. In addition, the ΔTm at 500 µM on KMT9 [2] (setting [5]) fell in the range of 15 to 20 °C. The IC50 on KMT9 [3] (setting [6]) was in the range of 1000 to 10000 nM.
The like results for `O[C@@H]1[C@@H](CNCCCNCCc2ccc(F)cc2)C[C@@H](n2cc(-c3cc(Cc4ccccc4)cs3)c3cncnc32)[C@@H]1O` [Compound 618, (1R,2S,3R,5R)-3-[5-(4-Benzylthiophen-2-yl)pyrrolo[2,3-d]pyrimidin-7-yl]-5-{[(3-{[2-(4-fluorophenyl)ethyl]amino}propyl)amino]methyl}cyclopentane-1,2-diol] were, in that order, 100 to 1000 nM, 10 to 15 °C and 1000 to 10000 nM.
The matching figures for `CN(CCCNCCc1ccc(F)cc1)C[C@H]1C[C@@H](n2cc(-c3ccn(Cc4ccccc4)n3)c3cnc(Cl)nc32)[C@H](O)[C@@H]1O` [Compound 642, (1R,2S,3R,5R)-3-[5-(1-Benzylpyrazol-3-yl)-2-chloropyrrolo[2,3-d]pyrimidin-7-yl]-5-{[(3-{[2-(4-fluorophenyl)ethyl]amino}propyl)(methyl)amino]methyl}cyclopentane-1,2-diol]: 10 to 100 nM, 15 to 20 °C and 1000 to 10000 nM.
Regarding `Nc1ncnc2c1ccn2[C@@H]1C[C@H](c2ccncc2)[C@@H](O)[C@H]1O` [Compound 389, (1R,2S,3R,5R)-3-(4-amino-7H-pyrrolo[2,3-d]pyrimidin-7-yl)-5-(pyridin-4-yl) cyclopentane-1,2-diol], the Kd at KMT9 [1] (setting [7]) is above 1000 nM. Besides, on KMT9 [2] (setting [8]), the ΔTm at 500 µM is at most 10 °C. Besides, the IC50 at KMT9 [3] (setting [9]) was above 10000 nM.
The like results for `O[C@@H]1[C@@H](CNCCCNCCc2ccccc2)C[C@@H](n2cc(-c3cc(Cc4ccccc4)cs3)c3cnc(Cl)nc32)[C@@H]1O` [Compound 621, (1R,2S,3R,5R)-3-[5-(4-Benzylthiophen-2-yl)-2-chloropyrrolo[2,3-d]pyrimidin-7-yl]-5-[{{3-[(2-phenylethyl)amino]propyl}amino)methyl]cyclopentane-1,2-diol] were, in that order, 100 to 1000 nM, 15 to 20 °C and 1000 to 10000 nM.
In the case of `Nc1nc(Cl)nc2c1c(-c1nc(Cc3ccccc3)cs1)cn2[C@@H]1C[C@H](C2CCN(CC(F)F)CC2)[C@@H](O)[C@H]1O` [Compound 511, (1R,2S,3R,5R)-3-[4-amino-5-(4-benzyl-1,3-thiazol-2-yl)-2-chloropyrrolo[2,3-d]pyrimidin-7-yl]-5-[1-(2,2-difluoroethyl)piperidin-4-yl]cyclopentane-1,2-diol], the Kd on KMT9 [1] (setting [10]) lay within 100 to 1000 nM. For the same compound, the ΔTm at 500 µM on KMT9 [2] (setting [11]) was 10 to 15 °C. Besides, the IC50 at KMT9 [3] (setting [12]) was 1000 to 10000 nM.
As to `Nc1ncnc2c1c(-c1nc(Cc3ccccc3)cs1)cn2[C@@H]1C[C@H]([C@H]2CCCNC2)[C@@H](O)[C@H]1O` (single isomer, unassigned) [Compound 593S], the Kd at KMT9 [1] (setting [7]) was in the range of 100 to 1000 nM. Also, at KMT9 [2] (setting [8]), the ΔTm at 500 µM fell in the range of 10 to 15 °C. Also, at KMT9 [3] (setting [9]), the IC50 lay in the range of 1000 to 10000 nM.
For the compound `Cn1ccc(-c2cn([C@@H]3C[C@H](c4cccc(CN5CCC5)c4)[C@@H](O)[C@H]3O)c3nc(Cl)nc(N)c23)n1` [Compound 674, (1R,2S,3R,5R)-3-(4-amino-2-chloro-5-(1-methyl-1H-pyrazol-3-yl)-7H-pyrrolo[2,3-d]pyrimidin-7-yl)-5-(3-(azetidin-1-ylmethyl)phenyl)cyclopentane-1,2-diol], on KMT9 [1] (setting [10]), the Kd is at most 10 nM. For the same compound, on KMT9 [2] (setting [11]), the ΔTm at 500 µM was 15 to 20 °C. Besides, the IC50 at KMT9 [3] (setting [12]) lay in the range of 100 to 1000 nM.
As for `CN1CCC([C@H]2C[C@@H](n3cc(-c4nc(Cc5ccccc5)cs4)c4c(N)nc(Cl)nc43)[C@H](O)[C@@H]2O)CC1` [Compound 505, (1R,2S,3R,5R)-3-(4-amino-5-(4-benzylthiazol-2-yl)-2-chloro-7H-pyrrolo[2,3-d]pyrimidin-7-yl)-5-(1-methylpiperidin-4-yl)cyclopentane-1,2-diol], the Kd on KMT9 [1] (setting [4]) was at most 10 nM. For the same compound, the ΔTm at 500 µM on KMT9 [2] (setting [5]) was above 20 °C. The IC50 on KMT9 [3] (setting [6]) was in the range of 100 to 1000 nM.
As for `CN1CCC[C@@H]([C@H]2C[C@@H](n3cc(-c4nc(Cc5ccccc5)cs4)c4c(N)nc(Cl)nc43)[C@H](O)[C@@H]2O)C1` [Compound 597S, (1R,2S,3R,5R)-3-(4-amino-5-(4-benzylthiazol-2-yl)-2-chloro-7H-pyrrolo[2,3-d]pyrimidin-7-yl)-5-((S)-1-methylpiperidin-3-yl)cyclopentane-1,2-diol], the Kd on KMT9 [1] (setting [10]) is at most 10 nM. In addition, the ΔTm at 500 µM at KMT9 [2] (setting [11]) is 15 to 20 °C. The IC50 on KMT9 [3] (setting [12]) was 100 to 1000 nM.
With `O[C@@H]1[C@@H](CNCCCNCCc2ccccc2)C[C@@H](n2cc(-c3cc(Cc4ccccc4)ns3)c3cncnc32)[C@@H]1O` [Compound 617, (1R,2S,3R,5R)-3-[5-(3-Benzyl-1,2-thiazol-5-yl)pyrrolo[2,3-d]pyrimidin-7-yl]-5-[({3-[(2-phenylethyl)amino]propyl}amino)methyl]cyclopentane-1,2-diol], at KMT9 [1] (setting [7]), the Kd was above 1000 nM. Moreover, the ΔTm at 500 µM at KMT9 [2] (setting [8]) lay within 10 to 15 °C. On KMT9 [3] (setting [9]), the IC50 lay in the range of 1000 to 10000 nM.
Take `Nc1ncnc2c1ccn2[C@@H]1C[C@H](c2ccc(O)cc2)[C@@H](O)[C@H]1O` [Compound 405, (1R,2S,3R,5R)-3-(4-amino-7H-pyrrolo[2,3-d]pyrimidin-7-yl)-5-(4-hydroxyphenyl) cyclopentane-1,2-diol]: the Kd on KMT9 [1] (setting [4]) is above 1000 nM. In addition, on KMT9 [2] (setting [5]), the ΔTm at 500 µM fell in the range of 10 to 15 °C. Moreover, the IC50 on KMT9 [3] (setting [6]) is above 10000 nM.
Regarding `O[C@@H]1[C@@H](CNCCCNCCc2ccccc2)C[C@@H](n2cc(-c3nc(Cc4ccccc4)cs3)c3cnc(Cl)nc32)[C@@H]1O` [Compound 634, (1R,2S,3R,5R)-3-(5-(4-Benzylthiazol-2-yl)-2-chloro-7H-pyrrolo[2,3-d]pyrimidin-7-yl)-5-(((3-(phenethylamino)propyl)amino)methyl)cyclopentane-1,2-diol], the Kd at KMT9 [1] (setting [7]) lay in the range of 10 to 100 nM. For the same compound, the ΔTm at 500 µM on KMT9 [2] (setting [8]) is 15 to 20 °C. Further, the IC50 at KMT9 [3] (setting [9]) was in the range of 1000 to 10000 nM.
With `O[C@@H]1[C@@H](CNCCCNCCc2ccccc2)C[C@@H](n2cc(-c3nc(Oc4ccccc4)cs3)c3cncnc32)[C@@H]1O` [Compound 639, (1S,2R,3R,5R)-3-(((3-(Phenethylamino)propyl)amino)methyl)-5-(5-(4-phenoxythiazol-2-yl)-7H-pyrrolo[2,3-d]pyrimidin-7-yl)cyclopentane-1,2-diol], the Kd on KMT9 [1] (setting [7]) was above 1000 nM. Besides, the ΔTm at 500 µM on KMT9 [2] (setting [8]) was in the range of 10 to 15 °C. Also, the IC50 on KMT9 [3] (setting [9]) lay in the range of 1000 to 10000 nM.
On to `COc1cc(OC)cc([C@H]2C[C@@H](n3cc(Br)c4c(N)nc(Cl)nc43)[C@H](O)[C@@H]2O)c1` [Compound 677, (1R,2S,3R,5R)-3-{4-amino-5-bromo-2-chloropyrrolo[2,3-d]pyrimidin-7-yl}-5-(3,5-dimethoxyphenyl)cyclopentane-1,2-diol], for which the Kd at KMT9 [1] (setting [10]) is 10 to 100 nM. For the same compound, at KMT9 [2] (setting [11]), the ΔTm at 500 µM lay within 10 to 15 °C. Besides, the IC50 on KMT9 [3] (setting [12]) was in the range of 1000 to 10000 nM.
The matching figures for `Nc1nc(Cl)nc2c1ccn2[C@@H]1C[C@H](c2cccc(OC(F)(F)F)c2)[C@@H](O)[C@H]1O` [Compound 668, (1R,2S,3R,5R)-3-(4-amino-2-chloro-7H-pyrrolo[2,3-d]pyrimidin-7-yl)-5-(3-(trifluoromethoxy)phenyl)cyclopentane-1,2-diol]: 100 to 1000 nM, at most 10 °C and 1000 to 10000 nM.
Take `CS(=O)(=O)n1ccc(-c2cn([C@@H]3C[C@H](CNCCCNCCc4ccccc4)[C@@H](O)[C@H]3O)c3nc(Cl)ncc23)n1` [Compound 622, (1R,2S,3R,5R)-3-(2-Chloro-5-(1-(methylsulfonyl)-1H-pyrazol-3-yl)-7H-pyrrolo[2,3-d]pyrimidin-7-yl)-5-(((3-(phenethylamino)propyl)amino)methyl)cyclopentane-1,2-diol]: the Kd at KMT9 [1] (setting [4]) was in the range of 100 to 1000 nM. Also, the ΔTm at 500 µM at KMT9 [2] (setting [5]) lay within 15 to 20 °C. Further, the IC50 at KMT9 [3] (setting [6]) is 100 to 1000 nM.
